Values of other authors as cited in US11999734B2, “Compounds and compositions for the treatment of cystic fibrosis” (Fondazione Istituto Italiano Di Tecnologia, priority 2018, dated 2024).

Key:
F508del-CFTR = F508del-CFTR (Homo sapiens, UniProt P13569, DEL508-508); conditions: chronic treatment of cells with VX-770; Cholon et al. 2014, Veit et al. 2014
Sequence of F508del-CFTR (P13569 with tags, fused parts or gaps DEL508-508): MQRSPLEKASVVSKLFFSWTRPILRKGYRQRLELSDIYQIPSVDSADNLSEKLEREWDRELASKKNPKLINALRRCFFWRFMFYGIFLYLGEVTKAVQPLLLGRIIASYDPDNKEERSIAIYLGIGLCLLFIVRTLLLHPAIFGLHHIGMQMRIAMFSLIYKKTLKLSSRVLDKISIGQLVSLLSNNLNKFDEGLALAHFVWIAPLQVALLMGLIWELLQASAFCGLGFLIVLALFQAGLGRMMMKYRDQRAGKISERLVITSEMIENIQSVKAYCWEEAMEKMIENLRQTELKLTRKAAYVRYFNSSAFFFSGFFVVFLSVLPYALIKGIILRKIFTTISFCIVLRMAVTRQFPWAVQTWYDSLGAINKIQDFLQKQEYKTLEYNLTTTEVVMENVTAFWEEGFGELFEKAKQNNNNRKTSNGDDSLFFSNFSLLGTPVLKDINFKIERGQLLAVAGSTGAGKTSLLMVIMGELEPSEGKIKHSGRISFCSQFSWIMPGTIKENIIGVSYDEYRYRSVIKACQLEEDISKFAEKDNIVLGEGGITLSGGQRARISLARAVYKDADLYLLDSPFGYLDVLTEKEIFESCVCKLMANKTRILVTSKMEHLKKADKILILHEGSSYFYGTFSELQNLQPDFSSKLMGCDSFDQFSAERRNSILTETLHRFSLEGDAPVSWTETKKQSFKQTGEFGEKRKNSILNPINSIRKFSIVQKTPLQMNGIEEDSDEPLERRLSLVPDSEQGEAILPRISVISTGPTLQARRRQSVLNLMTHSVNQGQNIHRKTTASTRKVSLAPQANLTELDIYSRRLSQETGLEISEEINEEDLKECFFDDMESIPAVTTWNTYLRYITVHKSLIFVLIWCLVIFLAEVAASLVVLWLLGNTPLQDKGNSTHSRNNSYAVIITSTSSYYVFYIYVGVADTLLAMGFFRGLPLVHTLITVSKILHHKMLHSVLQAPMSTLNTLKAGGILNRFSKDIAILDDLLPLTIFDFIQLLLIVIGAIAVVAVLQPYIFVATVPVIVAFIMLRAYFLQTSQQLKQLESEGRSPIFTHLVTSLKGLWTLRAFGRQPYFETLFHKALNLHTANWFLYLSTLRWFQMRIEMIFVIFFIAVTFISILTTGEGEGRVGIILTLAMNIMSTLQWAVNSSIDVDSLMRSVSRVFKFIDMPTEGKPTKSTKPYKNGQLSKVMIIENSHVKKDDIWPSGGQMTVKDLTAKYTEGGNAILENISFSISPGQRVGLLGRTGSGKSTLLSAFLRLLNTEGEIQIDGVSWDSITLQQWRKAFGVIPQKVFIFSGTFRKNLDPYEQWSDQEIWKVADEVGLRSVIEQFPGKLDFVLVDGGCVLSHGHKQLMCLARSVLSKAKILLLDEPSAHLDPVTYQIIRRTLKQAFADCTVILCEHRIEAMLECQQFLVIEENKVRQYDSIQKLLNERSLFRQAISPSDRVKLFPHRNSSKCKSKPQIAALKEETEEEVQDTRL

| Compound | effect on corrector activity of VX-809 (F508del-CFTR) | efficacy in clinical trials (CF patients; VX-770, Ramsey et al. 2011) | therapeutic benefit in clinical trials (CF patients; CF patients with F508del mutation, Clancy et al. 2012) |
| --- | --- | --- | --- |
| CC(C)(C)c1cc(C(C)(C)C)c(NC(=O)c2c[nH]c3ccccc3c2=O)cc1O [VX-770, ivacaftor] | decreases the corrector activity of VX-809 | high efficacy | – |
| Cc1ccc(NC(=O)C2(c3ccc4c(c3)OC(F)(F)O4)CC2)nc1-c1cccc(C(=O)O)c1 [VX-809, lumacaftor] | – | – | did not show a clear therapeutic benefit |
